From US10975056B2 (GlaxoSmithKline Intellectual Property Development Limited, priority 2016, dated 2021) come the findings set out here.

Where “and” joins values, the source holds several entries; their conditions need not be identical. Equal values may be shown once. Where a name gives a salt, the structure may show the parent alone. Read-outs that look alike come from different tables or passages of the source.

One assay addresses DNMT1 (Homo sapiens, UniProt P26358). In words: DNMT1 biochemical activity, breaklight assay and/or SPA assay.
In assay [1] the test system is erythroid progenitor cells (EPCs). Nature of the assay: Fetal hemoglobin (HbF) ELISA in day 7 erythroid progenitor cells. The assay is classed as cell-based, human. The following applies: Homo sapiens, Erythroid progenitor cell, HbF ELISA, day 7 EPCs, 5 days; read-out: EPC ELISA (pEC50 category) (converted). In outline: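 HbF induction was read by anti-HbF sandwich ELISA (HRP/TMB, OD450) on lysates and normalized to vehicle-treated cells. Cells were day 7 erythroid progenitors derived from human bone marrow CD34+ cells, seeded at 1,000/well with 3 U/mL rhEPO. Compound was given for 5 days at 37 °C at final concentrations […].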
Background: An ELISA detects its analyte on a solid surface through an enzyme-linked reagent.

The mark [2] stands for this setting: binned activity in either the breaklight or the SPA assay.
Setting [3] is: binned activity in either the breaklight or the SPA assay, read-out: DNMT1 BioChemical (pIC50 category) (converted).
Where [4] appears, read: breaklight assay and/or SPA assay, repeated experimental runs, read-out: average pIC50 against DNMT1 (converted).

Sequence of DNMT1 (P26358 whole entry, looked up): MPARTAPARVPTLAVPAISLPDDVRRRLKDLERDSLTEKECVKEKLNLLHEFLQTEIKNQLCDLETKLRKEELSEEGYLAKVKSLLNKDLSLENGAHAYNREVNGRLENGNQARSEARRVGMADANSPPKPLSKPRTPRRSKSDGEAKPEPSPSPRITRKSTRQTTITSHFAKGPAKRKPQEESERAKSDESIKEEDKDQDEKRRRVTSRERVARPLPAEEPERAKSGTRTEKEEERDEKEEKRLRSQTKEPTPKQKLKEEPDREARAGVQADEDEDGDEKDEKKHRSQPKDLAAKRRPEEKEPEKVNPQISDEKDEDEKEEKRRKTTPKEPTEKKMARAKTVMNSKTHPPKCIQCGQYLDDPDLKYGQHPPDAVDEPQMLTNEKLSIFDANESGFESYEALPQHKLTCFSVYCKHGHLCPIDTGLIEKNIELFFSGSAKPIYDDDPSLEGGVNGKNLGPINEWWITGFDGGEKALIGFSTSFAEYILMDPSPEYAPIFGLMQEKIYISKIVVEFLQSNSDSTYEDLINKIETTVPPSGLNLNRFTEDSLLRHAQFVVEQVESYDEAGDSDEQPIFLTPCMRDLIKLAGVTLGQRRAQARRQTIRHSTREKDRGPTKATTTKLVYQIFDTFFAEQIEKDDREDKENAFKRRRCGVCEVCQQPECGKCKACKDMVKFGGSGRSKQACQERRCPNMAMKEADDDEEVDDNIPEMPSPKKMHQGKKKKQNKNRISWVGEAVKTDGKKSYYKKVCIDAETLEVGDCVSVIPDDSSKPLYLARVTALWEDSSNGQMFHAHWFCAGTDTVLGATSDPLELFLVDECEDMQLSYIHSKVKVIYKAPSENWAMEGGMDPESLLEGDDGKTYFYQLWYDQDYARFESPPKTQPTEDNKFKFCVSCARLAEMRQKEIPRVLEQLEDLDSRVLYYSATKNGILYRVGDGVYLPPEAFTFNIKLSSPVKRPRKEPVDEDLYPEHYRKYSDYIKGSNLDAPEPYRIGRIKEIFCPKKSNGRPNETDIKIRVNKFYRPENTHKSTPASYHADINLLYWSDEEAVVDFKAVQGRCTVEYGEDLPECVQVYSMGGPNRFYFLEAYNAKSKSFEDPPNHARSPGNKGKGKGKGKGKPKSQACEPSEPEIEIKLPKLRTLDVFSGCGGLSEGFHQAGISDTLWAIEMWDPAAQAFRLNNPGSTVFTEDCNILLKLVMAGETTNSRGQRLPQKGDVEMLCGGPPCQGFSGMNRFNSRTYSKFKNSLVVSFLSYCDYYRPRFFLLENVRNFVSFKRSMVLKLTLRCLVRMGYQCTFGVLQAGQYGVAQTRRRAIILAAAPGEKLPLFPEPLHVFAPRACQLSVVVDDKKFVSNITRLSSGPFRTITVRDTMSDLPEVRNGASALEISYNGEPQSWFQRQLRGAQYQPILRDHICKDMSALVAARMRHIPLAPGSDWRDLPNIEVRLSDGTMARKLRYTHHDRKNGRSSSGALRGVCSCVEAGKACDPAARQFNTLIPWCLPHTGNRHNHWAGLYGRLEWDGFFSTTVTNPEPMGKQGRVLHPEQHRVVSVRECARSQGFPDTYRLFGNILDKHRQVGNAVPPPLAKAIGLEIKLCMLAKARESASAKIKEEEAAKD

Take `CCc1c(C#N)c(SC(C(N)=O)c2ccc(C)cn2)nc(N(C)C)c1C#N` (centres unmarked) [Example 238, 2-((3,5-Dicyano-6-(dimethylamino)-4-ethylpyridin-2-yl)thio)-2-(5-methylpyridin-2-yl)acetamide]: the “DNMT1 BioChemical (pIC50 category)” value on DNMT1 (setting [2]) is reported as “D (Category D: ≥6.5)”. Moreover, the EC50 in assay [1] was 1 to 31.6 µM.
On the same counts, the results for `CCc1c(C#N)c(SC(C(N)=O)c2ccccc2)nc(N2CCC(N3CCN(C)CC3)CC2)c1C#N` (centres unmarked) [Example 450, 2-((3,5-dicyano-4-ethyl-6-(4-(4-methylpiperazin-1-yl)piperidin-1-yl)pyridin-2-yl)thio)-2-phenylacetamide] are “D (Category D: ≥6.5)” and < 0.316 µM.
The corresponding values for `CCc1c(C#N)c(SC(C(N)=O)c2ccccc2)nc(N(C)CCN2CCCCC2)c1C#N` (centres unmarked) [Example 478, 2-((3,5-dicyano-4-ethyl-6-(methyl(2-(piperidin-1-yl)ethyl)amino)pyridin-2-yl)thio)-2-phenylacetamide] are “D (Category D: ≥6.5)” and < 0.316 µM.
Consider `CCc1c(C#N)c(SCc2ccc(CNC3CCNC3=O)cc2)nc(N2CCCN(C)CC2)c1C#N` (centres unmarked) [Example 385, 4-Ethyl-2-(4-methyl-1,4-diazepan-1-yl)-6-((4-(((2-oxopyrrolidin-3-yl)amino)methyl)benzyl)thio)pyridine-3,5-dicarbonitrile], for which the IC50 at DNMT1 (setting [3]) was 0.316 to 1 µM. The EC50 in assay [1] was > 31.6 µM.
As for `CCc1c(C#N)c(SC(C(N)=O)c2ccccc2)nc(N2CCC(N3CC[C@@H](F)C3)CC2)c1C#N` (stereo partly drawn) [Example 460, 2-((3,5-dicyano-4-ethyl-6-(4-((R)-3-fluoropyrrolidin-1-yl)piperidin-1-yl)pyridin-2-yl)thio)-2-phenylacetamide], at DNMT1 (setting [2]), the “DNMT1 BioChemical (pIC50 category)” value is reported as “D (Category D: ≥6.5)”. The EC50 in assay [1] was < 0.316 µM.
The corresponding values for `CCc1c(C#N)c(SC(C(N)=O)c2ccccc2)nc(N2CCC(NCc3ccccc3)CC2)c1C#N` (centres unmarked) [Example 455, 2-(6-(4-(benzylamino)piperidin-1-yl)-3,5-dicyano-4-ethylpyridin-2-ylthio)-2-phenylacetamide] are “D (Category D: ≥6.5)” and < 0.316 µM.
As for `CCc1c(C#N)c(SC(C(N)=O)c2ccccc2)nc(N2CCC(CO)(NCCO)CC2)c1C#N` (centres unmarked) [Example 661, 2-((3,5-dicyano-4-ethyl-6-(4-((2-hydroxyethyl)amino)-4-(hydroxymethyl)piperidin-1-yl)pyridin-2-yl)thio)-2-phenylacetamide], at DNMT1 (setting [2]), the “DNMT1 BioChemical (pIC50 category)” value is “D (Category D: ≥6.5)”. Moreover, the EC50 in assay [1] was 1 to 31.6 µM.
Regarding `CCc1c(C#N)c(SC(C(N)=O)c2cccc(C(=O)c3ccccc3)c2)nc(N2CCCN(CCO)CC2)c1C#N` (centres unmarked) [Example 244, 2-(3-Benzoylphenyl)-2-((3,5-dicyano-4-ethyl-6-(4-(2-hydroxyethyl)-1,4-diazepan-1-yl)pyridin-2-yl)thio)acetamide], at DNMT1 (setting [3]), the IC50 was 0.316 to 1 µM. Moreover, the EC50 in assay [1] was < 0.316 µM.
On to `CCc1c(C#N)c(SC(C(N)=O)c2ccccc2)nc(N2CCC3(CCCN(CC4CC4)C3)CC2)c1C#N` (centres unmarked) [Example 119, 2-((3,5-Dicyano-6-(2-(cyclopropylmethyl)-2,9-diazaspiro[5.5]undecan-9-yl)-4-ethylpyridin-2-yl)thio)-2-phenylacetamide hydrochloride], for which the IC50 on DNMT1 (setting [3]) is 0.316 to 1 µM; on DNMT1 (setting [4]), 0.316 to 1 µM and 0.398 µM. Further, the EC50 in assay [1] was < 0.316 µM.
`CCc1c(C#N)c(SCc2ccc(N(C)S(C)(=O)=O)cc2)nc(N(C)CCN(C)C)c1C#N` [Example 482, N-(4-(((3,5-dicyano-6-((2-(dimethylamino)ethyl)(methyl)amino)-4-ethylpyridin-2-yl)thio)methyl)phenyl)-N-methylmethanesulfonamide]: at DNMT1 (setting [2]), the “DNMT1 BioChemical (pIC50 category)” value is on record as “D (Category D: ≥6.5)”. The EC50 in assay [1] is < 0.316 µM.
The corresponding values for `CCc1c(C#N)c(SC(C(N)=O)c2ccccc2)nc(N2CCC(CN3CCN(C)CC3)CC2)c1C#N` (centres unmarked) [Example 469, 2-((3,5-dicyano-4-ethyl-6-(4-((4-methylpiperazin-1-yl)methyl)piperidin-1-yl)pyridin-2-yl)thio)-2-phenylacetamide] are “D (Category D: ≥6.5)” and < 0.316 µM.
`CCc1c(C#N)c(SC(C(N)=O)c2ccnc(C)c2)nc(N2CCCN(C)CC2)c1C#N` (centres unmarked) [Example 246, 2-((3,5-Dicyano-4-ethyl-6-(4-methyl-1,4-diazepan-1-yl)pyridin-2-yl)thio)-2-(2-methylpyridin-4-yl)acetamide]: the IC50 at DNMT1 (setting [3]) was 0.316 to 1 µM. In assay [1], the EC50 is > 31.6 µM.
Turning to `CN(CCCN)c1nc(SC(C(N)=O)c2ccccc2)c(C#N)c(C2CC2)c1C#N` (centres unmarked) [Example 391, 2-((6-((3-Aminopropyl) (methyl)amino-3,5-dicyano-4-cyclopropylpyridin-2-yl)thio-2-phenylacetamide, Hydrochloride], the “DNMT1 BioChemical (pIC50 category)” value on DNMT1 (setting [2]) was “D (Category D: ≥6.5)”. In assay [1], the EC50 is 1 to 31.6 µM.
Turning to `CCc1c(C#N)c(SC(C(N)=O)c2cc(F)ncc2F)nc(N2CCCN(C)CC2)c1C#N` (centres unmarked) [Example 249, 2-((3,5-Dicyano-4-ethyl-6-(4-methyl-1,4-diazepan-1-yl)pyridin-2-yl)thio)-2-(2,5-difluoropyridin-4-yl)acetamide], at DNMT1 (setting [3]), the IC50 is 1 to 31.6 µM. Moreover, in assay [1], the EC50 is > 31.6 µM.
On to `CCc1c(C#N)c(SC(C(N)=O)c2ccccc2)nc(N2CCC[C@H](NC)C2)c1C#N` (stereo partly drawn) [Example 607, 2-((3,5-dicyano-4-ethyl-6-((S)-3-(methylamino)piperidin-1-yl)pyridin-2-yl)thio)-2-phenylacetamide], for which the “DNMT1 BioChemical (pIC50 category)” value on DNMT1 (setting [2]) is “D (Category D: ≥6.5)”. In assay [1], the EC50 was < 0.316 µM.
Turning to `CCc1c(C#N)c(SCc2ccc(CNC(C)=O)cc2)nc(N2CCC(OCCOC(=O)[C@@H](N)C(C)C)CC2)c1C#N` [Example 264, (S)-2-((1-(6-((4-(Acetamidomethyl)benzyl)thio)-3,5-dicyano-4-ethylpyridin-2-yl)piperidin-4-yl)oxy)ethyl 2-amino-3-methylbutanoate], the IC50 at DNMT1 (setting [3]) is 1 to 31.6 µM. The EC50 in assay [1] is > 31.6 µM.
`CCc1c(C#N)c(SC(C(N)=O)c2ccccc2)nc(N2CCC(NC(=O)[C@H](N)CO)CC2)c1C#N` (stereo partly drawn) [Example 398, (2R)-2-Amino-N-(1-(6-((2-amino-2-oxo-1-phenylethyl)thio)-3,5-dicyano-4-ethylpyridin-2-yl)piperidin-4-yl)-3-hydroxypropanamide]: the “DNMT1 BioChemical (pIC50 category)” value at DNMT1 (setting [2]) is “D (Category D: ≥6.5)”. Further, the EC50 in assay [1] was 1 to 31.6 µM.
On the same counts, the results for `COc1c(C#N)c(SC(C(N)=O)c2ccccc2)nc(N2CCCN(CCO)CC2)c1C#N` (centres unmarked) [Example 142, 2-((3,5-Dicyano-6-(4-(2-hydroxyethyl)-1,4-diazepan-1-yl)-4-methoxypyridin-2-yl)thio)-2-phenylacetamide] are “D (Category D: ≥6.5)” and 0.316 to 1 µM.
On to `CCc1c(C#N)c(S[C@@H](C(N)=O)c2ccc(F)cc2)nc(N2CC[C@H](O)C2)c1C#N` [Example 425], for which the “DNMT1 BioChemical (pIC50 category)” value on DNMT1 (setting [2]) was “D (Category D: ≥6.5)”. For the same molecule, the “average pIC50 against DNMT1” value at DNMT1 (breaklight assay and/or SPA assay, repeated experimental runs) is on record as > 6.5. Also, at DNMT1 (setting [4]), the IC50 is 0.158 µM. Moreover, the EC50 in assay [1] was 0.316 to 1 µM.
As to `CCc1c(C#N)c(SC(C(N)=O)c2ccccc2)nc(N(C)CCN2[C@H](C)CC[C@@H]2C)c1C#N` (stereo partly drawn) [Example 476, 2-(3,5-dicyano-6-((2-((2S,5R)-2,5-dimethylpyrrolidin-1-yl)ethyl)(methyl)amino)-4-ethylpyridin-2-ylthio)-2-phenylacetamide], on DNMT1 (setting [2]), the “DNMT1 BioChemical (pIC50 category)” value is on record as “D (Category D: ≥6.5)”. Also, in assay [1], the EC50 is < 0.316 µM.
The corresponding values for `CCc1c(C#N)c(SC(C(N)=O)c2ccccc2)nc(N2CCOC(CNC)C2)c1C#N` (centres unmarked) [Example 563, 2-((3,5-dicyano-4-ethyl-6-(2-((methylamino)methyl)morpholino)pyridin-2-yl)thio)-2-phenylacetamide] are “D (Category D: ≥6.5)” and < 0.316 µM.
On to `N#Cc1c(SC(C(N)=O)c2ccccc2)nc(N2CC(NC(=O)C3(N)COC3)C2)c(C#N)c1C1CC1` (centres unmarked) [Example 680, 3-amino-N-(1-(6-((2-amino-2-oxo-1-phenylethyl)thio)-3,5-dicyano-4-cyclopropylpyridin-2-yl)azetidin-3-yl)oxetane-3-carboxamide], for which the IC50 at DNMT1 (setting [3]) was < 0.316 µM. Further, the EC50 in assay [1] is 1 to 31.6 µM.
As for `CCc1c(C#N)c(SCc2ccc(C(=O)Nc3cn[nH]c3)cc2)nc(N2CCCN(C)CC2)c1C#N` [Example 543, 4-(((3,5-dicyano-4-ethyl-6-(4-methyl-1,4-diazepan-1-yl)pyridin-2-yl)thio)methyl)-N-(1H-pyrazol-4-yl)benzamide], at DNMT1 (setting [2]), the “DNMT1 BioChemical (pIC50 category)” value is listed as “D (Category D: ≥6.5)”. In addition, the EC50 in assay [1] is > 31.6 µM.
On the same counts, the results for `CCc1c(C#N)c(SC(C(N)=O)c2ccccc2)nc(N2CCO[C@H](CNC(=O)C(C)(C)N)C2)c1C#N` (stereo partly drawn) [Example 581, 2-amino-N-(((2R)-4-(6-((2-amino-2-oxo-1-phenylethyl)thio)-3,5-dicyano-4-ethylpyridin-2-yl)morpholin-2-yl)methyl)-2-methylpropanamide] are “D (Category D: ≥6.5)” and < 0.316 µM.
Take `CCc1c(C#N)c(S[C@@H](C(N)=O)c2ccc(F)cc2F)nc(N2CC[C@H](O)C2)c1C#N` [Example 674, (R)-2-((3,5-dicyano-4-ethyl-6-((S)-3-hydroxypyrrolidin-1-yl)pyridin-2-yl)thio)-2-(2,4-difluorophenyl)acetamide]: the “DNMT1 BioChemical (pIC50 category)” value on DNMT1 (setting [2]) is “D (Category D: ≥6.5)”. Besides, the EC50 in assay [1] was 1 to 31.6 µM.
